Laboratory results reported in the CheMixHub viscosity set.

Assay: xn = mol fraction of the nth substance listed

OCCCl + Cc1ccccc1N
viscosity [mPa·s], 100 kPa
Details | x2 = 0.1141 | x2 = 0.2148 | x2 = 0.3201 | x2 = 0.4123 | x2 = 0.5121 | x2 = 0.6225 | x2 = 0.7112 | x2 = 0.8184 | x2 = 0.9017
303.15 K | 2.67 | 2.744 | 2.82 | 2.884 | 2.953 | 3.026 | 3.084 | 3.151 | 3.202
308.15 K | 2.312 | 2.378 | 2.445 | 2.502 | 2.562 | 2.626 | 2.676 | 2.734 | 2.777
313.15 K | 1.963 | 2.031 | 2.099 | 2.157 | 2.219 | 2.285 | 2.337 | 2.396 | 2.44
318.15 K | 1.645 | 1.711 | 1.777 | 1.834 | 1.893 | 1.958 | 2.008 | 2.067 | 2.108

CN1CCC[C@H]1c1cccnc1 + ClC(Cl)C(Cl)Cl
viscosity [mPa·s], 101.33 kPa
Details | x1 = 0.1547 | x1 = 0.2569 | x1 = 0.3706 | x1 = 0.5146 | x1 = 0.5995 | x1 = 0.6384 | x1 = 0.6803 | x1 = 0.7501 | x1 = 0.868
298.15 K | 2.625 | 3.353 | 4.121 | 4.912 | 5.253 | 5.353 | 5.203 | 5.031 | 4.545
323.15 K | 1.541 | 1.905 | 2.184 | 2.425 | 2.53 | 2.632 | 2.568 | 2.497 | 2.342

CN1CCC[C@H]1c1cccnc1 + ClC(Cl)Cl
viscosity [mPa·s], 101.33 kPa
Details | 298.15 K | 308.15 K | 323.15 K
x1 = 0.1107 | 0.8162 | 0.7343 | 0.6076
x1 = 0.1213 | 0.8741 | 0.7473 | 0.6289
x1 = 0.2022 | 1.135 | 0.9654 | 0.8066
x1 = 0.219 | 1.197 | 0.9796 | 0.8071
x1 = 0.2456 | 1.275 | 1.082 | 0.8894
x1 = 0.2972 | 1.463 | 1.206 | 0.958
x1 = 0.3738 | 1.8 | 1.473 | 1.138
x1 = 0.4026 | 1.921 | 1.588 | 1.198
x1 = 0.4882 | 2.296 | 1.818 | 1.361
x1 = 0.5032 | 2.395 | 1.9 | 1.402
x1 = 0.6129 | 2.846 | 2.267 | 1.651
x1 = 0.623 | 2.964 | 2.301 | 1.663
x1 = 0.6823 | 3.103 | 2.409 | 1.756
x1 = 0.6974 | 3.196 | 2.471 | 1.768
x1 = 0.8059 | 3.563 | 2.756 | 1.912
x1 = 0.8931 | 3.704 | 2.959 | 2
x1 = 0.8962 | 3.741 | 2.974 | 2.002

CC(C)C#N + Clc1ccccc1
viscosity [mPa·s], 101 kPa
Details | x2 = 0.1028 | x2 = 0.2026 | x2 = 0.3007 | x2 = 0.4004 | x2 = 0.5004 | x2 = 0.6004 | x2 = 0.6996 | x2 = 0.7998 | x2 = 0.8999
303.15 K | 0.487 | 0.513 | 0.537 | 0.562 | 0.585 | 0.61 | 0.636 | 0.663 | 0.689
308.15 K | 0.456 | 0.48 | 0.503 | 0.525 | 0.545 | 0.569 | 0.592 | 0.616 | 0.643

CC(C)C#N + Clc1ccccc1Cl
viscosity [mPa·s], 101 kPa
Details | x2 = 0.1007 | x2 = 0.2025 | x2 = 0.2999 | x2 = 0.4004 | x2 = 0.4997 | x2 = 0.599 | x2 = 0.6994 | x2 = 0.7997 | x2 = 0.8989
303.15 K | 0.526 | 0.594 | 0.659 | 0.73 | 0.793 | 0.874 | 0.947 | 1.03 | 1.118
308.15 K | 0.489 | 0.551 | 0.608 | 0.667 | 0.732 | 0.798 | 0.87 | 0.945 | 1.02

OCCCl + Nc1cccc(Cl)c1
100 kPa
Details | viscosity [mPa·s]
303.15 K, x2 = 0.7938 | 3.925
308.15 K, x2 = 0.3622 | 2.855
313.15 K, x2 = 0.0844 | 1.995
313.15 K, x2 = 0.5814 | 2.795

CC(=O)[O-].[Na+] + O
viscosity [mPa·s], 101.33 kPa
Details | 293.15 K | 298.15 K | 303.15 K
x1 = 0.0046 | 1.082 | 0.965 | 0.863
x1 = 0.0112 | 1.217 | 1.083 | 0.968
x1 = 0.0172 | 1.355 | 1.205 | 1.075
x1 = 0.0215 | 1.466 | 1.302 | 1.16
x1 = 0.0287 | 1.673 | 1.484 | 1.32
x1 = 0.0343 | 1.857 | 1.645 | 1.462
x1 = 0.0402 | 2.076 | 1.836 | 1.629
x1 = 0.0467 | 2.35 | 2.076 | 1.839
x1 = 0.0505 | 2.529 | 2.232 | 1.975
x1 = 0.0572 | 2.883 | 2.54 | 2.244
x1 = 0.0652 | 3.379 | 2.97 | 2.619

CN1CCC[C@H]1c1cccnc1 + O
viscosity [mPa·s]
Details | 298.15 K | 303.15 K | 308.15 K | 318.05 K | 323.15 K
100 kPa, x1 = 0.006 | – | 1.33 | – | 1.15 | –
100 kPa, x1 = 0.1 | – | 7.1 | – | 4.1 | –
100 kPa, x1 = 0.3 | – | 14.2 | – | 6.2 | –
100 kPa, x1 = 0.4 | – | 17.3 | – | 5.8 | –
100 kPa, x1 = 0.5 | – | 11.1 | – | 5 | –
100 kPa, x1 = 0.6 | – | 5.8 | – | 3.1 | –
100 kPa, x1 = 0.7 | – | 4.5 | – | 2.8 | –
100 kPa, x1 = 0.8 | – | 4.8 | – | 3.5 | –
100 kPa, x1 = 0.9 | – | 2 | – | 1.3 | –
101 kPa, x1 = 0.1202 | 11.12 | – | 6.629 | – | 3.436
101 kPa, x1 = 0.1977 | 19.96 | – | 10.4 | – | 4.771
101 kPa, x1 = 0.2424 | 23.83 | – | 12.08 | – | 5.382
101 kPa, x1 = 0.2592 | 25.19 | – | 12.24 | – | 5.493
101 kPa, x1 = 0.2808 | 24.43 | – | 12.19 | – | 5.403
101 kPa, x1 = 0.3047 | 23.6 | – | 12.1 | – | 5.304
101 kPa, x1 = 0.3692 | 21.03 | – | 11.15 | – | 5.146
101 kPa, x1 = 0.4852 | 15.84 | – | 8.817 | – | 4.426
101 kPa, x1 = 0.6052 | 11.43 | – | 6.572 | – | 3.624
101 kPa, x1 = 0.7285 | 7.954 | – | 4.832 | – | 2.834
101 kPa, x1 = 0.8635 | 5.014 | – | 3.811 | – | 2.486

O=S(=O)([O-])[O-].[NH4+].[NH4+] + O
viscosity [mPa·s], 101 kPa
Details | 298.15 K | 308.15 K | 318.15 K
x1 = 0.008901 | 0.9796 | 0.8523 | 0.7339
x1 = 0.01765 | 1.709 | 1.427 | 1.231

O=c1cc[nH]c(=O)[nH]1 + O
viscosity [mPa·s]
Details | 293.15 K | 298.15 K | 303.15 K | 308.15 K | 318.15 K
101 kPa, x1 = 9e-05 | – | 0.879 | – | 0.7172 | 0.5784
101 kPa, x1 = 0.00018 | – | 0.9132 | – | 0.7313 | 0.5871
101 kPa, x1 = 0.00027 | – | 0.9292 | – | 0.7541 | 0.6092
101 kPa, x1 = 0.00036 | – | 0.941 | – | 0.7821 | 0.6272
101.3 kPa, x1 = 0.000113 | 1.004 | – | 0.801 | – | –
101.3 kPa, x1 = 0.000164 | – | 0.892 | – | 0.721 | –
101.3 kPa, x1 = 0.000177 | 1.005 | 0.894 | 0.802 | – | –
101.3 kPa, x1 = 0.0002602 | – | 0.894 | – | – | 0.599
101.3 kPa, x1 = 0.0002747 | 1.006 | – | 0.803 | – | –
101.3 kPa, x1 = 0.0003447 | 1.007 | 0.896 | 0.804 | – | –
101.3 kPa, x1 = 0.0004315 | – | 0.896 | – | – | 0.601
101.3 kPa, x1 = 0.0004415 | – | 0.896 | – | 0.725 | 0.601
101.3 kPa, x1 = 0.0004586 | 1.008 | 0.897 | 0.805 | – | –
101.3 kPa, x1 = 0.0004739 | – | 0.897 | – | 0.725 | 0.601
101.3 kPa, x1 = 0.0005438 | 1.009 | – | 0.806 | – | –

OCCCO + O
Details | viscosity [mPa·s]
293.15 K, 101.33 kPa, x1 = 0.1597 | 5.035
298.15 K, 101 kPa, x1 = 0.0743 | 1.975
298.15 K, 101 kPa, x1 = 0.1661 | 4.203
298.15 K, 101 kPa, x1 = 0.2338 | 6.223
298.15 K, 101 kPa, x1 = 0.3007 | 8.667
298.15 K, 101 kPa, x1 = 0.3965 | 12.43
298.15 K, 101 kPa, x1 = 0.4726 | 15.67
298.15 K, 101 kPa, x1 = 0.5649 | 19.7
298.15 K, 101 kPa, x1 = 0.6713 | 24.72
298.15 K, 101 kPa, x1 = 0.7492 | 28.53
298.15 K, 101 kPa, x1 = 0.8137 | 32
298.15 K, 101 kPa, x1 = 0.9572 | 39.94
298.15 K, 101.3 kPa, x2 = 0.0622 | 37.15
308.15 K, 101 kPa, x1 = 0.095 | 1.65
308.15 K, 101 kPa, x1 = 0.1968 | 4.202
308.15 K, 101 kPa, x1 = 0.3019 | 6.937
308.15 K, 101 kPa, x1 = 0.4108 | 9.362
308.15 K, 101 kPa, x1 = 0.495 | 11.66
308.15 K, 101 kPa, x1 = 0.6009 | 14.63
308.15 K, 101 kPa, x1 = 0.692 | 17.5
308.15 K, 101 kPa, x1 = 0.7938 | 20.41
308.15 K, 101 kPa, x1 = 0.9232 | 24.43
313.15 K, 101.33 kPa, x1 = 0.5449 | 11.05
323.15 K, 101.33 kPa, x1 = 0.7523 | 11.15
